Experimental data as given in US20070231258A1, “Peptide conjugates” (KARYON CTT LTD., priority 2006, published 2007).
*1 amine or outer side, *2 acyl side, *3 side chain or, on linkers, in order; H or OH if unused. Bridges are numbered along the chain shown (N, C = ends). Primed or numbered codes have the meaning given here. [ ]: non-standard residue; d: D form. DTPA′ = diethylenetriaminepentaacetic acid chelator; NHCH2CH2SCH2CO = O=C(CSCCN[*:1])[*:2]; Cysteamide = C(CS[*:3])N[*:1]; AEEEA = NCCOCCOCCOCC(=O)O; AABz = not defined here

Assays:
[1] = Plasma stability of the peptide conjugates in human blood plasma/PBS (HPLC)
Experimental: The peptide conjugates (10-20 μg) was added to a human blood plasma/PBS mixture (1:1) in a total volume of 500 μl and incubated at 37° C. After incubation 100 μl per time point (0 and 240 min) was transferred to YM-10 (Microcon, cut-off 10000 MW; manufacturer Millipore), centrifuged (10000 RPM) 15 min at 4° C. 50 μl of the spin-through material was analyzed by HPLC.
HPLC: Waters 626 pump, 600S controller, Waters 996 photo diode array detector. Column: C18, 300 Å, 5 μm, 2.1×250 mm. Eluents for the non-conjugated functional peptides: A 0.1% TFA, B 0.075% TFA/100% ACN. Gradient: 0-100% B in 60 min. Flow: 180 μl/min. Loop: 50 μl.
Eluents for the functional peptide conjugates: Eluent A: 0.05 M ammonium acetate; B: 50% 0.05 M ammonium acetate/50% ACN. Gradient: 0-100% B in 60 min. Flow: 180 μl/min. Loop: 50 μl. One-minute fractions were collected and analyzed with MALDI-TOF.
Peptide mass: Bruker Ultraflex MALDI-TOF, N2-laser 337 nm, matrix saturated solution of α-cyano-4-hydroxycinnamic acid, reflector mode.

HCT-15 tumors = assay: Biodistribution of cystine- and lactam-bridged conjugates (Eu content) in HCT-15 tumor-bearing mice; assay type: in vivo, athymic-nu nude mice; details: 4 nmol MJ018 vs 16 nmol MJ069 i.v., 15 min circulation
Experimental: The biodistribution of the targeting agents MJ018 (lactam-bridged; described in Example 4) and MJ069 (cystine-bridged; described below) comprising functional peptide YGFVWGE was compared in mice carrying primary tumors of HTC-15, a human colorectal cancer cell line.
For production of experimental tumors, 22.5 million (for MJ018), and 1 million (for MJ069) HCT-15 cells were injected subcutaneously into both flanks of athymic-nu nude mice (Harlan Laboratories). The human colorectal cancer HCT-15 cell line (ATCC: CCL-225), called herein also “HCT-15”, was cultured in RPMI 1640 medium with 2 mM L-glutamine adjusted to contain 1.5 g/L sodium bicarbonate, 4.5 g/L glucose, 10 mM HEPES, and 1.0 mM sodium pyruvate, 1% penicillin/streptomycin, 10% fetal bovine serum.
Tumors were harvested when they had reached a minimum weight of 0.1 g. […]
For determination of the Eu content of the tumors and control or gans, 0.05-0.2 g of tissue was transferred into lysis buffer (20 mM Tris-HCl, 150 mM NaCl, 1% Nonident P40, pH 7.5) and homogenised. The Eu-content was determined from tissue lysates prepared into Enhancement solution (Perkin Elmer Wallac Ltd., Turku, Finland) and transferred to DELFIA Micro titration strip plates (Perkin Elmer Wallac Ltd., Turku, Finland). Time-resolved fluorescence was measured after incubation with a Wallac 1420 VICTOR3™ V plate reader using a D615 nm filter.

HCT-15 = assay: Cell binding assay of immobilized peptide conjugate (MTT detection); assay type: cell-based, human; details: HCT-15 cells, wells coated at 30 μg/ml, 30 min 37° C.
Experimental: The human colorectal cancer HCT-15 cell line (ATCC: CCL-225), called herein also “HCT-15”, was cultured in RPMI 1640 medium with 2 mM L-glutamine adjusted to contain 1.5 g/L sodium bicarbonate, 4.5 g/L glucose, 10 mM HEPES, and 1.0 mM sodium pyruvate, 1% penicillin/streptomycin, 10% fetal bovine serum.
(§1) Preparation of plates for the assays. Wells of Reacti-Bind Maleimide activated clear strip plate (Pierce, Prod#. 15150) were coated with a peptide conjugate a*YGFVWGEE*-(Teg-E)2-EAT, Compound MJ013 prepared in Example 3, at a concentration of 30 μg/ml. The incubation was carried out overnight at 20° C. The binding buffer containing unbound peptide was re-moved from the wells.
(§2) The wells were blocked with blocking buffer (0.5% BSA, 0.05% Tween20 in phosphate buffer saline (PBS). PBS was prepared as follows: 40 g of NaCl, 1 g of KCl, 7 g of Na2HPO4×2H2O and 1 g of KH2PO4 were dissolved in […] of deionized H2O). Blank wells as controls were prepared by treating empty wells with blocking buffer. […]
(§3) Cell binding assay: 75000 cells in volume of 150 μl of medium were added into coated wells and were incubated for 30 min at 37° C. […] After formazan was solubilized by 10% SDS-0,01 M HCl, it was quantified with an ELISA spectrometer (ThermoLabsystems Multiscan EX) at 560 nm. […] The following day the absorbance of plate was measured at 560 nm with an ELISA-reader (ThermoLab-systems, Multiskan EX).

NIH3T3 = assay: as above; assay type: cell-based, mouse; details: control cell line NIH3T3, wells coated at 30 μg/ml, 30 min 37° C.
Experimental: The mouse fibroblast line NIH3T3, called herein also “NIH3T3”, has been described previously by Koga et al. in Gann, 1979, 70: 585-591. The cell line was cultured in DMEM medium adjusted to contain 2 mM L-glutamine, 1% penicillin/streptomycin, and 10% fetal bovine serum.
as §1, §2, §3

SVEC4-10 = assay: as above; assay type: cell-based, mouse; details: control cell line SVEC4-10, wells coated at 30 μg/ml, 30 min 37° C.
Experimental: The mouse vascular endothelial cell line SVEC4-10, called herein also “SVEC4-10”, has been described previously by O'Connell et al. in J. Immunol., 1990, 144: 521-525. The cell line was cultured in DMEM medium adjusted to contain 2 mM L-glutamine, 1% penicillin/streptomycin, and 10% fetal bovine serum.
as §1, §2, §3

HCT-15-LM1 = assay: as above; assay type: cell-based, human; details: HCT-15-LM1 cells, wells coated at 30 μg/ml, 30 min 37° C.
Text: The colorectal cancer cell line HCT-15-LM1 was developed as follows. The cell culture was started with cancer cells from lung metastases which had developed after injection of human colorectal cancer HCT-15 cells into the bloodstream of a mouse. The inoculation procedure was then repeated with HCT-15-LM1 cells leading to the establishment of another metastatic cell line, HCT-15-LM2.
as §1
The wells were blocked with blocking buffer (0.5% BSA, 0.05% Tween20 in phosphate buffer saline (PBS). PBS was prepared as follows: 40 g of NaCl, 1 g of KCl, 7 g of Na2HPO4×2H2O and 1 g of KH2PO4 were dissolved in 1000 ml of deionized H2O). […]
as §3

HSC-3 = assay: as above; assay type: cell-based, human; details: HSC-3 cells, wells coated at 30 μg/ml, 30 min 37° C.
Experimental: The human oral squamous cell carcinoma line HSC-3, called herein “HSC-3” (JCRB Cell Bank 0623, National Institute of Health Sciences, Japan) was cultivated in 1:1 DMEM and Ham's F 12 medium containing 10% FBS 1% penicillin/streptomycin, L-glutamate and sodium pyruvate and 0.4 ng/ml hydrocortisone.
as §1, §2, §3

C8161T = assay: as above; assay type: cell-based, human; details: C8161T cells, wells coated at 30 μg/ml, 30 min 37° C.
Experimental: The human melanoma cell line C8161 has been described previously by Welch et al. in Int. J. Cancer, 1991, 47: 227-237. A more metastatic cell line C8161T, called herein also “C8161T”, was developed by culturing cells from a subcutaneous melanoma tumor developed after inoculation of C8161 melanoma cells on the flank of a nude mouse. The cell line was cultured in DMEM medium adjusted to contain 2 mM L-glutamine, 1% penicillin/streptomycin, and 10% fetal bovine serum.
Preparation of plates for the assays. Wells of Reacti-Bind Maleimide activated clear strip plate (Pierce, Prod#. 15150) were coated with a peptide conjugate a*YGFVWGEE*-(Teg-E)2-EAT, Compound MJ013 prepared in Example 3, at a concentration of 30 μg/ml. The incubation was carried out overnight at 20° C. The binding buffer containing unbound peptide was re-moved from the wells. […]
as §3

Substance	Observed compound peak heights prior to incubation ([1]; 0 h, human blood plasma/PBS 1:1, 37° C.)	Observed compound peak heights after four hours ([1]; 4 h, human blood plasma/PBS 1:1, 37° C.)	degradation during incubation in plasma ([1]; 4 h incubation in human plasma)	accumulation in tumor tissue (tissue-to-muscle Eu content), lactam- vs cystine-bridged (HCT-15 tumors)	cell binding to immobilized peptide conjugate (absorbance at 560 nm) (HCT-15)	cell binding to immobilized peptide conjugate (absorbance at 560 nm) (NIH3T3)	cell binding to immobilized peptide conjugate (absorbance at 560 nm) (SVEC4-10)	cell binding to immobilized peptide conjugate (absorbance at 560 nm) (HCT-15-LM1)	cell binding to immobilized peptide conjugate (absorbance at 560 nm) (HSC-3)	cell binding to immobilized peptide conjugate (absorbance at 560 nm) (C8161T)
a*YGFVWGEE*-(Teg-E)2-AEM-AABz-DTPA-Eu (YGFVWGEE[AEEEA]E[AEEEA]E-{NHCH2CH2SCH2CO-AABz-DTPA′}; lactam N-8; not fully specified (N-terminus); reading uncertain; also: DTPA chelate of Eu) [MJ018]	100%	100%	no degradation	accumulated more strongly in the tumor tissue than the cystine-bridged conjugate MJ069	–	–	–	–	–	–
a*YGFVWGEE*-(Teg-E)2-EAT (YGFVWGEE[AEEEA]E[AEEEA]E-Cysteamide; lactam N-8; not fully specified (N-terminus)) [MJ013]	–	–	–	–	bind selectively	significantly less binding	significantly less binding	bind selectively	bind selectively	bind selectively
